Test results: article PMC8401933 (Molecules, 2021)
Entries after “also recorded” stand apart in the source; their conditions may differ.

How the values were obtained:
MERTK = target: T1, MERTK (Homo sapiens, UniProt Q12866); assay: KINOMEscan binding; settings: read-out: Percent Control
T1 construct: purchased Eurofins DiscoverX KINOMEscan

CDK9 = target: T2, CDK9 (Homo sapiens, UniProt P50750); assay: KINOMEscan binding; settings: read-out: Percent Control
T2 construct: purchased Eurofins DiscoverX KINOMEscan
T2 sequence (P50750 whole entry): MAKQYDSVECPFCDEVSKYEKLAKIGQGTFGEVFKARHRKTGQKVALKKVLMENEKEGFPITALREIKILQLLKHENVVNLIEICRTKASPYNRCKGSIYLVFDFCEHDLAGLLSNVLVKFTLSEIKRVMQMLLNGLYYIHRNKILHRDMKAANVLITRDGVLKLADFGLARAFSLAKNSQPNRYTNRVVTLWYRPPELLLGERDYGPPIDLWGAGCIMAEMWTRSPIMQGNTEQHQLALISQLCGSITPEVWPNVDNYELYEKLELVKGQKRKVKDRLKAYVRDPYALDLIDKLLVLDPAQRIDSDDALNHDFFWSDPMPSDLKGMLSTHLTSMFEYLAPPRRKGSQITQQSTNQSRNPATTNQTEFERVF

AURKA = target: T3, AURKA (Homo sapiens, UniProt O14965); assay: KINOMEscan binding; settings: read-out: Percent Control
T3 construct: purchased Eurofins DiscoverX KINOMEscan
T3 sequence (O14965 whole entry): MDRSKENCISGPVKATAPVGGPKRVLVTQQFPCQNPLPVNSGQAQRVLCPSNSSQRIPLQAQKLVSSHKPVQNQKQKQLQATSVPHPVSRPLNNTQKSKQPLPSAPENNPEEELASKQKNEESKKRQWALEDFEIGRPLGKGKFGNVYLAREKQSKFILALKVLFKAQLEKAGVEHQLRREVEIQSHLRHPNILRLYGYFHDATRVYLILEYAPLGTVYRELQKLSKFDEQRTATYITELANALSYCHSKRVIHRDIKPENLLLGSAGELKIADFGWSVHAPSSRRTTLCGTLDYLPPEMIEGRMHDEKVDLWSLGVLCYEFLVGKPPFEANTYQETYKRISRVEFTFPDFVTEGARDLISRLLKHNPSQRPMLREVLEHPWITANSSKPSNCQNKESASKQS

AMPK-alpha1 = target: T4, AMPK-alpha1 (Homo sapiens, UniProt Q13131); assay: KINOMEscan binding; settings: read-out: Percent Control
T4 construct: purchased Eurofins DiscoverX KINOMEscan

TRKC = target: T5, TRKC (Homo sapiens, UniProt Q16288); assay: KINOMEscan binding; settings: read-out: Percent Control
T5 construct: purchased Eurofins DiscoverX KINOMEscan

FAK = target: T6, FAK (Homo sapiens, UniProt Q05397); assay: KINOMEscan binding; settings: read-out: Percent Control
T6 construct: purchased Eurofins DiscoverX KINOMEscan

RET(M918T) = target: T7, RET(M918T) (Homo sapiens, UniProt P07949, M918T); assay: KINOMEscan binding; settings: read-out: Percent Control
T7 construct: purchased Eurofins DiscoverX KINOMEscan

EPHA2 = target: T8, EPHA2 (Homo sapiens, UniProt P29317); assay: KINOMEscan binding; settings: read-out: Percent Control
T8 construct: purchased Eurofins DiscoverX KINOMEscan

NEK1 = target: T9, NEK1 (Homo sapiens, UniProt Q96PY6); assay: KINOMEscan binding; settings: read-out: Percent Control
T9 construct: purchased Eurofins DiscoverX KINOMEscan

SGK = target: T10, SGK (Homo sapiens, UniProt O00141); assay: KINOMEscan binding; settings: read-out: Percent Control
T10 construct: purchased Eurofins DiscoverX KINOMEscan

YANK1 = target: T11, YANK1 (Homo sapiens, UniProt Q8WU08); assay: KINOMEscan binding; settings: read-out: Percent Control
T11 construct: purchased Eurofins DiscoverX KINOMEscan

[1] = test system: Pparg and Cebpa genes in 3T3-L1 cells; assay: qRT-PCR of adipogenic genes during differentiation; assay type: cell-based; settings: 3T3-L1 during differentiation; KD025 5 μM, CX-4945 10 μM, Y-27632 10 μM
Method: (§1) The preadipocyte 3T3-L1 cell line was kindly provided by Dr. Hyun-Sung Park (University of Seoul) and cultured in Dulbecco’s modified Eagle’s medium (DMEM, Sigma-Aldrich) supplied with 10% heat-inactivated newborn calf serum (Invitrogen, CA, USA), 100 units/mL penicillin, and 100 µg/mL streptomycin (Cellgro, VA, USA). The cells were maintained in an incubator at 37 °C and 5% CO2. To initiate differentiation, the cells were incubated for additional days after 100% confluence and then further incubated in a medium containing fetal bovine serum (FBS) and a differentiation cocktail (DMI, 1 μM dexamethasone, 0.5 mM 3-isobutyl-1-methylxanthine, and 5 μg/mL insulin) as previously described. In brief, at day 3, the culture medium was replaced with DMEM/10%FBS containing 5 µg/mL insulin. Then, growth medium was changed every 2 days.
Total RNA was extracted using easy-BLUE (iNtRON Biotechnology, Dajeon, Korea) in accordance with the manufacturer’s protocol. cDNA was synthesized from 2 µg of total RNA using TOPscript^TM Drymix Kit (Enzynomics, Dajeon, Korea). qRT-PCR was performed using TB Green ® Premix Ex Taq^TM II (Tli RNAse H Plus) (TaKaRa, Japan) with Applied Biosystems QuantStudio™ 1 Real-Time PCR System (Thermo Fisher Scientific, Waltham, MA, USA). Gene expression data were normalized based on the use of the same amount of total RNA samples. The relative fold change of gene expression was calculated using the ∆Ct method.

PIKFYVE = target: T12, PIKFYVE (Homo sapiens, UniProt Q9Y2I7); assay: KINOMEscan binding; settings: read-out: Percent Control
T12 construct: purchased Eurofins DiscoverX KINOMEscan
T12 sequence (Q9Y2I7 whole entry): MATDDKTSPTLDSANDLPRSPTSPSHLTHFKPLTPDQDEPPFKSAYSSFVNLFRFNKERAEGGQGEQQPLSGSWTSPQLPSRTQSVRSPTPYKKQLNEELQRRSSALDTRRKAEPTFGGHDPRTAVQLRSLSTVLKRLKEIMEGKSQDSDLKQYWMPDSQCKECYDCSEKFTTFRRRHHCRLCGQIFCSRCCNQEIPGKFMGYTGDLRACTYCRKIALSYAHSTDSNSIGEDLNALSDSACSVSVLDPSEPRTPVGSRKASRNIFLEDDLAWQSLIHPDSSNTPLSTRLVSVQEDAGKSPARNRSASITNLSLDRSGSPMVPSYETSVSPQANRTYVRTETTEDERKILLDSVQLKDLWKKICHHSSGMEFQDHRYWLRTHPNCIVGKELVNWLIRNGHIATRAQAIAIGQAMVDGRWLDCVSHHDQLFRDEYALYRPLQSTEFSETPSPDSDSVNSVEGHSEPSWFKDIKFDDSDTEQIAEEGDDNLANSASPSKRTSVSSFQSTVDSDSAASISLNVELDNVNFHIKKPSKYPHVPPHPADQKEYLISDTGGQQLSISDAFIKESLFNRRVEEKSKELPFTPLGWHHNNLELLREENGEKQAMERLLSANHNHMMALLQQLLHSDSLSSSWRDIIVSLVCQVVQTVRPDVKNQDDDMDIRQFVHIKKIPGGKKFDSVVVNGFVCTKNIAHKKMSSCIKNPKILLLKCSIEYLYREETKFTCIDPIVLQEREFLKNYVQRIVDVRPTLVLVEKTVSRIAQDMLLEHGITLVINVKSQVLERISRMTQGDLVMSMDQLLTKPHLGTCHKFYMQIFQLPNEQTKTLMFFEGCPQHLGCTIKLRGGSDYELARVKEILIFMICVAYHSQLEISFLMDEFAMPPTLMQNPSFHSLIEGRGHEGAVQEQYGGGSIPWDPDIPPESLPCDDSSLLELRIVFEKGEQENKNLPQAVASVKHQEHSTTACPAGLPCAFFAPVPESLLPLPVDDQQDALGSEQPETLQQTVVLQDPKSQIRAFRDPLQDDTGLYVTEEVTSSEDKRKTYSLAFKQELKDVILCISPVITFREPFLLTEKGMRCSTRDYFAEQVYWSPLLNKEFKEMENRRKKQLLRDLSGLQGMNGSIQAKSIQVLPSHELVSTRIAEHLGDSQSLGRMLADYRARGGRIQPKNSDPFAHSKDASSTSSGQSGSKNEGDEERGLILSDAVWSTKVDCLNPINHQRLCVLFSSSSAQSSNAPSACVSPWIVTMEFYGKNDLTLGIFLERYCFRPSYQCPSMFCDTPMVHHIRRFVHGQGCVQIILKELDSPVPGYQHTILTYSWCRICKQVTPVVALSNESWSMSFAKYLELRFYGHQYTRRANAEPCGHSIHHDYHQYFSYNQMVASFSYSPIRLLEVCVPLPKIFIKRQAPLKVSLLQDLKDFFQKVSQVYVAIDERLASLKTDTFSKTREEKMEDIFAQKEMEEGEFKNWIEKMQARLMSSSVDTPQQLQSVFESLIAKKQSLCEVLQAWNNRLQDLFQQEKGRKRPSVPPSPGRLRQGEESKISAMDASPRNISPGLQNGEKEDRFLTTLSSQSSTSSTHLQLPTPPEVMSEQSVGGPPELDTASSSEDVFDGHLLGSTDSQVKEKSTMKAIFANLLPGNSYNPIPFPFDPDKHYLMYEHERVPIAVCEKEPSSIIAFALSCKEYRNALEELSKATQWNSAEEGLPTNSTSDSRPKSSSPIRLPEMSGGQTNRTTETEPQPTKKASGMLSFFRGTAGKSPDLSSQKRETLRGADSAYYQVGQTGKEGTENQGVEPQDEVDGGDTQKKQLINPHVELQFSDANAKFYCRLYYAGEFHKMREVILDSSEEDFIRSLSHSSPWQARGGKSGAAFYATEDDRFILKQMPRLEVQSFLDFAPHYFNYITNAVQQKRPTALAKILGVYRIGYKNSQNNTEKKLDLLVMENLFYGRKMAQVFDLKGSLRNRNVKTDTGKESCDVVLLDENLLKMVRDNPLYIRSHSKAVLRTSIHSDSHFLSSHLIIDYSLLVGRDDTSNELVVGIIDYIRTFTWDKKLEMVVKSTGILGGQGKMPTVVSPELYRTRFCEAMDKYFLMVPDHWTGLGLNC

CDKL2 = target: T13, CDKL2 (Homo sapiens, UniProt Q92772); assay: KINOMEscan binding; settings: read-out: Percent Control
T13 construct: purchased Eurofins DiscoverX KINOMEscan

TESK1 = target: T14, TESK1 (Homo sapiens, UniProt Q15569); assay: KINOMEscan binding; settings: read-out: Percent Control
T14 construct: purchased Eurofins DiscoverX KINOMEscan
T14 sequence (Q15569 whole entry): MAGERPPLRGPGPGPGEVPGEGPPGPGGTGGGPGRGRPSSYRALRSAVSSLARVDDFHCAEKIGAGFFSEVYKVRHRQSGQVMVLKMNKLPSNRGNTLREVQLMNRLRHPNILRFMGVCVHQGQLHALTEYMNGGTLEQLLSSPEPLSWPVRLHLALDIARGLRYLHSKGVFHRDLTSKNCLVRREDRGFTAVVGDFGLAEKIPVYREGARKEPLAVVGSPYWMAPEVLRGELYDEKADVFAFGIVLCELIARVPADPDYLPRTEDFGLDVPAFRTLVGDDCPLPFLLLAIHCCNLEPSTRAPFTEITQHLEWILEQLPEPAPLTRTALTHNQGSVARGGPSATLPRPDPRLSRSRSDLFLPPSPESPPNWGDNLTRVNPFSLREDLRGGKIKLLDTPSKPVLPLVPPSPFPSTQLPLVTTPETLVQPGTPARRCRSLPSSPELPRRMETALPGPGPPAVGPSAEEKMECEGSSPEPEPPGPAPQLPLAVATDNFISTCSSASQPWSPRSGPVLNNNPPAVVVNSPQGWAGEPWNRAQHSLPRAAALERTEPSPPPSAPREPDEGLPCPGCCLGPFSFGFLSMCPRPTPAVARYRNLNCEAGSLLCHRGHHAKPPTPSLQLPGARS

MST1R = target: T15, MST1R (Homo sapiens, UniProt Q04912); assay: KINOMEscan binding; settings: read-out: Percent Control
T15 construct: purchased Eurofins DiscoverX KINOMEscan

NEK10 = target: T16, NEK10 (Homo sapiens, UniProt Q6ZWH5); assay: KINOMEscan binding; settings: read-out: Percent Control
T16 construct: purchased Eurofins DiscoverX KINOMEscan

ERK8 = target: T17, ERK8 (Homo sapiens, UniProt Q8TD08); assay: KINOMEscan binding; settings: read-out: Percent Control
T17 construct: purchased Eurofins DiscoverX KINOMEscan
T17 sequence (Q8TD08 whole entry): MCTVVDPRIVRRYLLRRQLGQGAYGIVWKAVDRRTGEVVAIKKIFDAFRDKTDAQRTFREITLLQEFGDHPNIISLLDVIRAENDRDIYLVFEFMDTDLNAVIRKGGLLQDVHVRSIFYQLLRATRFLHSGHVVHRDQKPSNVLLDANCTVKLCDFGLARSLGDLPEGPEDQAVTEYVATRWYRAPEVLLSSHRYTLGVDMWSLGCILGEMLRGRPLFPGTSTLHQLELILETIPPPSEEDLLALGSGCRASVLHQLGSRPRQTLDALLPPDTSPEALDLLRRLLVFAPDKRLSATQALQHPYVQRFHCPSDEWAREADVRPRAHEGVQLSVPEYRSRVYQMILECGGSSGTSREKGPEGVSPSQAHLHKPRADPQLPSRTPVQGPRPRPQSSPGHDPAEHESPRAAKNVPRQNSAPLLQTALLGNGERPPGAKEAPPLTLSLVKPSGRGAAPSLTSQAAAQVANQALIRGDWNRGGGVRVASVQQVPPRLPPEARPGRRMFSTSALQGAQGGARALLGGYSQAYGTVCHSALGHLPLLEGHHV

3T3-L1 cells = assay: Adipocyte differentiation, Oil Red O staining; assay type: cell-based; settings: for quantity of lipid droplets (ORO staining): CX-4945 5 μM, KD025 3 μM
Method: as §1
Lipid droplets of cells were stained using ORO (Sigma-Aldrich, MA, USA). In brief, the cells were washed with phosphate buffered saline and incubated with 10% formalin for 5 min. The cells were then fixed with the same volume of fresh formalin for at least 1 h. Subsequently, the cells were washed with 60% isopropanol, air dried completely, and then stained with ORO working solution (1% ORO/isopropanol: distilled water = 3:2). The stained cells were washed with water four times. Cell images were taken by a microscope (Nikon Eclipse TS100-F, Japan). Then, 100% isopropanol was added and incubated for 10 min to quantify the intensity of ORO. The quantity of extracted dye was obtained by obtaining absorbance at 540 nm in the Synergy H1 hybrid reader (BioTek, VT, USA).

CDK4-cyclinD3 = target: T18, CDK4-cyclinD3 (Homo sapiens, UniProt P11802); assay: KINOMEscan binding; settings: read-out: Percent Control
T18 construct: purchased Eurofins DiscoverX KINOMEscan

[2] = target: T19, ABL1(Q252H)-phosphorylated (Homo sapiens, UniProt P00519, Q252H); assay: KINOMEscan binding; settings: read-out: Percent Control
T19 construct: purchased Eurofins DiscoverX KINOMEscan

CSNK1A1 = target: T20, CSNK1A1 (Homo sapiens, UniProt P48729); assay: KINOMEscan binding; settings: read-out: Percent Control
T20 construct: purchased Eurofins DiscoverX KINOMEscan
T20 sequence (P48729 whole entry): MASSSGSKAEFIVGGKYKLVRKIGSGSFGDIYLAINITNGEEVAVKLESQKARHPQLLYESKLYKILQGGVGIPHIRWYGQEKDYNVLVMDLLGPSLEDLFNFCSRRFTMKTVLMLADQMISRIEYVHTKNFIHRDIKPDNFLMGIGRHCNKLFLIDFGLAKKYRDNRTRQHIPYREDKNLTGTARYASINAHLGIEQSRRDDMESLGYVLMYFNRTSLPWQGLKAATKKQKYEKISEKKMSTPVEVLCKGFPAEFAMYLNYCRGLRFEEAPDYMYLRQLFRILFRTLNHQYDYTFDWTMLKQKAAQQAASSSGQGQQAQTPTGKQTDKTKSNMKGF

AURKC = target: T21, AURKC (Homo sapiens, UniProt Q9UQB9); assay: KINOMEscan binding; settings: read-out: Percent Control
T21 construct: purchased Eurofins DiscoverX KINOMEscan
T21 sequence (Q9UQB9 whole entry): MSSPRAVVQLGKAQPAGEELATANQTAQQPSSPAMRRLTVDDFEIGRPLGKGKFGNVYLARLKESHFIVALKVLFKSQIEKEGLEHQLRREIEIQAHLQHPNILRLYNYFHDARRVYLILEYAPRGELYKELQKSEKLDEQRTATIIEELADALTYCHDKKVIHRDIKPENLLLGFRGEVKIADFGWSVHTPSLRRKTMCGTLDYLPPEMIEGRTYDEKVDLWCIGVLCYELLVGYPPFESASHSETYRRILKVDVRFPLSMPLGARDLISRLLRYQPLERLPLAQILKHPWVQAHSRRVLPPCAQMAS

GRK4 = target: T22, GRK4 (Homo sapiens, UniProt P32298); assay: KINOMEscan binding; settings: read-out: Percent Control
T22 construct: purchased Eurofins DiscoverX KINOMEscan

MAP3K3 = target: T23, MAP3K3 (Homo sapiens, UniProt Q99759); assay: KINOMEscan binding; settings: read-out: Percent Control
T23 construct: purchased Eurofins DiscoverX KINOMEscan

EPHA8 = target: T24, EPHA8 (Homo sapiens, UniProt P29322); assay: KINOMEscan binding; settings: read-out: Percent Control
T24 construct: purchased Eurofins DiscoverX KINOMEscan

WNK3 = target: T25, WNK3 (Homo sapiens, UniProt Q9BYP7); assay: KINOMEscan binding; settings: read-out: Percent Control
T25 construct: purchased Eurofins DiscoverX KINOMEscan

CAMK1 = target: T26, CAMK1 (Homo sapiens, UniProt Q14012); assay: KINOMEscan binding; settings: read-out: Percent Control
T26 construct: purchased Eurofins DiscoverX KINOMEscan

MLK3 = target: T27, MLK3 (Homo sapiens, UniProt Q16584); assay: KINOMEscan binding; settings: read-out: Percent Control
T27 construct: purchased Eurofins DiscoverX KINOMEscan

PDPK1 = target: T28, PDPK1 (Homo sapiens, UniProt O15530); assay: KINOMEscan binding; settings: read-out: Percent Control
T28 construct: purchased Eurofins DiscoverX KINOMEscan

CC(C)NC(=O)COc1cccc(-c2nc(Nc3ccc4[nH]ncc4c3)c3ccccc3n2)c1 [KD025, 2-(3-(4-((1H-indazol-5-yl)amino)quinazolin-2-yl)phenoxy)-N-isopropylacetamide]
remaining binding at 10 µM (MERTK): 58% | remaining binding at 10 µM (CDK9): 96% | remaining binding at 10 µM (AURKA): 75% | remaining binding at 10 µM (AMPK-alpha1): 76% | remaining binding at 10 µM (TRKC): 100% | remaining binding at 10 µM (FAK): 92% | remaining binding at 10 µM (RET(M918T)): 66% | remaining binding at 10 µM (EPHA2): 59% | remaining binding at 10 µM (NEK1): 99% | remaining binding at 10 µM (SGK): 95% | remaining binding at 10 µM (YANK1): 80% | expression of Pparg and Cebpa genes [1]: suppressed | remaining binding at 10 µM (PIKFYVE): 12% | remaining binding at 10 µM (CDKL2): 100% | remaining binding at 10 µM (TESK1): 73% | remaining binding at 10 µM (MST1R): 71% | remaining binding at 10 µM (NEK10): 96% | remaining binding at 10 µM (ERK8): 93% | lipid accumulation / adipocyte differentiation (ORO staining) (3T3-L1 cells; 3T3-L1, treated during differentiation, stained at day 8): suppressed the generation of lipid droplets; also recorded: reduces fat accumulation | quantity of lipid droplets (ORO staining) (3T3-L1 cells; 3T3-L1, treated during the early (days 0–1) or late (days 5–8) stage): ineffective; also recorded: lesser effect | quantity of lipid droplets (ORO staining) (3T3-L1 cells; 3T3-L1, treated during the intermediate stage (days 1–3)): acted specifically in the middle stage; also recorded: significantly reduced | remaining binding at 10 µM (CDK4-cyclinD3): 53% | remaining binding at 10 µM [2]: 100% | remaining binding at 10 µM (CSNK1A1): 80% | remaining binding at 10 µM (AURKC): 18% | remaining binding at 10 µM (GRK4): 16% | remaining binding at 10 µM (MAP3K3): 80% | remaining binding at 10 µM (EPHA8): 88% | remaining binding at 10 µM (WNK3): 82% | remaining binding at 10 µM (CAMK1): 100% | remaining binding at 10 µM (MLK3): 83% | remaining binding at 10 µM (PDPK1): 70%
